How the values were obtained:
Hela cells = assay: Cell and nuclear permeability by click labelling with Alexa Fluor 647 picolyl azide, fluorescence imaging; format: cell-based; settings: for dependence of immobilized fluorescent signal on probe concentration: 10 μM vs 100 μM under UV illumination, FIG. 14B; for immobilization of Alexa Fluor 647 picolyl azide in cells (cell and nuclear permeability): probe 10 μM or 100 μM, 30 min, UV 365 nm 5 min
From the text: FIG. 11A-FIG. 11F depicts permeability and subcellular distribution of the BFPX probe SPB-AAD in Hela cell. Top panel (FIG. 11A-FIG. 11C): buffer control experiments without adding SPB-AAD, (FIG. 11A) bright field; (FIG. 11B) fluorescence imaging of Alexa Fluor; (FIG. 11C) DAPI stain of the nuclei; Bottom panel: treatment with […], (FIG. 11D) bright field; (FIG. 11E) fluorescence imaging of Alexa Fluor; (FIG. 11F) DAPI stain of the nuclei.
FIG. 14A depicts characterization and testing of BFPX crosslinking inside cells. Hela cells were incubated with SPB-AAD or SPB-PEG4-AAD (10 μM or 100 μM) in the dark for 30 min to allow the DNA binding and intercalation by the psoralen moiety of the BFPX probes. After washing off the excessive BFPX probe, illuminate UV 365 nm for 5 min. An Alexa Fluor 647 picolyl azide molecule (from Click-iT™ Plus Alexa Fluor™ 647 Picolyl Azide Toolkit) was used to react with the alkyne group on SPB-AAD or SPB-PEG4-AAD via click reaction. After the click chemistry labeling, the unreacted fluorescent molecules were removed by washing. The nuclei were analyzed using fluorescence imaging. When no BFPX probes were added (columns 1 and 2) or adding probes without UV treatment (columns 3 and 6), little or no fluorescence signal was retained in the cells.
We next tested the cell and nuclear permeability of the BFPX probes using azide-containing fluorescent molecules through click reaction with the terminal alkyne in SPB-AAD and SPB-PEG4-AAD. Briefly, Hela cells were incubated with SPB-AAD or SPB-PEG4-AAD (10 μM or 100 μM) in the dark for 30 min to allow the DNA binding and intercalation by the psoralen moiety of the BFPX probes. After washing off the excess BFPX probes followed by illumination of UV 365 nm for 5 min, Alexa Fluor 647 picolyl azide was coupled to the alkyne group on SPB-AAD or SPB-PEG4-AAD via click reaction. After the click chemistry labeling, the unreacted fluorescent molecules were removed by washing. The nuclei were then be analyzed using fluorescence imaging (FIG. 14A). When no BFPX probes were added (columns 1 and 2) or adding probes without UV treatment (columns 3 and 6), little or no fluorescence signal was retained in the cells.
We also analyzed (i) cell permeability and subcellular distribution of the BFPX probes. We validated the cell and nuclear permeability of the BFPX probes and monitored their sub-cellular distribution using azide-containing fluorescent label through click reaction with the alkyne group (as in SPB-AAD and SPB-PEG3-AAD). Briefly, Hela cells were incubated with SPB-AAD (25 μM) in the dark for 30 min to allow the DNA binding and intercalation by the psoralen moiety of the BFPX probe. […] The nuclei were then analyzed using fluorescence imaging (FIG. 11). […]

FOXP3 in HEK293T cells = target: T1, FOXP3 in HEK293T cells (Homo sapiens, UniProt Q9BZS1); assay: Capture of FLAG-tagged FOXP3 complexes in transfected HEK293T cells, whole cell lysate western blot; format: cell-based; settings: for crosslinked FOXP3 complexes in probe and UV treated cells: SPB-AAD 10 or 100 μM, SPB-PEG4-AAD 100 μM, UV 2-5 min, vs controls lanes 1-3
T1 construct: AVI tag (N); TEV site (N); expressed in transfected cells; host or cells: HEK293T
T1 sequence (Q9BZS1 1-431): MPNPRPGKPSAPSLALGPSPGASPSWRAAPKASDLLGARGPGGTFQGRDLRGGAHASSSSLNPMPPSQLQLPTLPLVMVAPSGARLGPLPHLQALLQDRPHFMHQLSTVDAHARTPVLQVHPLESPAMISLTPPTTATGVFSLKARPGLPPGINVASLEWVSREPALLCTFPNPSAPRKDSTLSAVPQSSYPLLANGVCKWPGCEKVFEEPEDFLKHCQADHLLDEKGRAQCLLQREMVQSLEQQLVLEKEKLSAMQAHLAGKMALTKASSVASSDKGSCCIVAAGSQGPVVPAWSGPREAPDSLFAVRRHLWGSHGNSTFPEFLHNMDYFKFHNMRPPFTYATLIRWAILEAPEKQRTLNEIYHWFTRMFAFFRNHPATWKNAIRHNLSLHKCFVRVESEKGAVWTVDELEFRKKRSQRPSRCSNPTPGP
Protocol: FIG. 14C depicts 10 cm plate HEK293T cells (˜8.8 million) were transfected with 2 μg AVI-TEV-FLAG-FOXP3 for about 48 hr. The cells were harvested into 1.6 ml room temperature 1×DPBS buffer (with no calcium and magnesium). The cells were aliquoted into 300 μl per sample and each sample was added SPB-AAD 10 μM (A10) or 100 μM (A100) or SPB-PEG4-AAD 100 μM (p100). The samples were incubated at 37° C. for 30 min in dark with rotation. The samples were transferred to the middle wells of a 24-well plate (Corning #3527). With 300 μl, the liquid is about 1.5 mm high in a 24-well plate well. The samples on the 24-well plate were then UV illuminated (LED Chip: 21.4 mm×21.4 mm, 365-370 nm, 30 Watt, sample distance (the bottom of the well plate to the lamp plane) is 4 cm, exposure time 2-5 min at 4 degree C.). The BFPX-treated cells were recovered from the 24-well plate and washed using 1×DPBS, centrifuged at 500 g for 5 min to pellet the cells and remove the DPBS buffer. 0.5 million of the BFPX-treated cells was added 20 μl 1×RIPA buffer, shake on ice for 15 min to lyse the cells. The lysis mixture was then added 3 μl 10× MNase, 0.25 μl RnaseA, 12.5 Unit Mnase, and ddw to 30 μl, incubated at 37° C. for 15 min. The lysis mixture was then added 6 μl SDS loading dye (2% SDS), boil 10 min at 95° C. Run at 200V for 40 minutes on 4%-15% SDS-PAGE gel and analyzed by western blot (Transfer at 18V (30 mA) overnight, block in 2% BSA in PBS for 45 min, Primary antibody: 1:2000 anti-FLAG; room temperature, 2 hr; Secondary antibody: anti mouse light chain kappa 1: 100,000; Femto Signal ECL).
Finally, we tested the capture of transcription factors bound to genomic DNA inside cells. HEK293T cells transfected with FLAG-tagged FOXP3 were treated with various combination of UV illumination and probe (SPB-AAD: A; and P: SPB-PEG4-AAD). The cells were lysed in 1×RIPA buffer followed by RNase and MNase treatment. The whole cell lysate were then added SDS loading dye, heated at 95 degree C. and run on a 4-15% SDS PAGE gel and analyzed by western blot using an anti-FLAG antibody.

dependence of immobilized fluorescent signal on probe concentration (Hela cells) | dependence of crosslinked FOXP3 complex formation on probe concentration (FOXP3 in HEK293T cells; 10 μM (lane 4) vs 100 μM (lane 6)) | SMILES | immobilization of Alexa Fluor 647 picolyl azide in cells (cell and nuclear permeability) (Hela cells) | crosslinked FOXP3 complexes in probe and UV treated cells (FOXP3 in HEK293T cells)
dosage dependent | – | C#CCCC1(CCNC(=O)CCOCCOCCOCCOCCNC(=O)CCCOc2c3occc3cc3ccc(=O)oc23)N=N1 [SPB-PEG4-AAD, N-(2-(3-(but-3-yn-1-yl)-3H-diazirin-3-yl)ethyl)-1-(4-((7-oxo-7H-furo[3,2-g]chromen-9-yl)oxy)butanamido)-3,6,9,12-tetraoxapentadecan-15-amide] | could be immobilized in the cells via click reaction | higher molecular weight species containing FOXP3 were observed
dosage dependent | dosage dependent on probe concentration | C#CCCC1(CCNC(=O)CCCOc2c3occc3cc3ccc(=O)oc23)N=N1 [SPB-AAD, N-(2-(3-(but-3-yn-1-yl)-3H-diazirin-3-yl)ethyl)-4-((7-oxo-7H-furo[3,2-g]chromen-9-yl)oxy)butanamide] | could be immobilized in the cells via click reaction | higher molecular weight species containing FOXP3 were observed

— US20250388597A1, “BIFUNCTIONAL PHOTOCROSSLINKING PROBES FOR COVALENT CAPTURE OF PROTEIN-NUCLEIC ACID COMPLEXES IN CELLS” (UNIVERSITY OF SOUTHERN CALIFORNIA, priority 2022, published 2025)
